# Test results published in PMC9120017, “Inhibition mechanism of the chloride channel TMEM16A by the pore blocker 1PBC” (Nature Communications, 2022).
# Read-outs that look alike come from different tables or passages of the source.
# Molecular target: T1, wild-type mouse TMEM16A (Mus musculus, UniProt Q8BHY3)
# T1 construct: expressed in transfected cells; host or cells: HEK293T
# T1 sequence (Q8BHY3 1-960): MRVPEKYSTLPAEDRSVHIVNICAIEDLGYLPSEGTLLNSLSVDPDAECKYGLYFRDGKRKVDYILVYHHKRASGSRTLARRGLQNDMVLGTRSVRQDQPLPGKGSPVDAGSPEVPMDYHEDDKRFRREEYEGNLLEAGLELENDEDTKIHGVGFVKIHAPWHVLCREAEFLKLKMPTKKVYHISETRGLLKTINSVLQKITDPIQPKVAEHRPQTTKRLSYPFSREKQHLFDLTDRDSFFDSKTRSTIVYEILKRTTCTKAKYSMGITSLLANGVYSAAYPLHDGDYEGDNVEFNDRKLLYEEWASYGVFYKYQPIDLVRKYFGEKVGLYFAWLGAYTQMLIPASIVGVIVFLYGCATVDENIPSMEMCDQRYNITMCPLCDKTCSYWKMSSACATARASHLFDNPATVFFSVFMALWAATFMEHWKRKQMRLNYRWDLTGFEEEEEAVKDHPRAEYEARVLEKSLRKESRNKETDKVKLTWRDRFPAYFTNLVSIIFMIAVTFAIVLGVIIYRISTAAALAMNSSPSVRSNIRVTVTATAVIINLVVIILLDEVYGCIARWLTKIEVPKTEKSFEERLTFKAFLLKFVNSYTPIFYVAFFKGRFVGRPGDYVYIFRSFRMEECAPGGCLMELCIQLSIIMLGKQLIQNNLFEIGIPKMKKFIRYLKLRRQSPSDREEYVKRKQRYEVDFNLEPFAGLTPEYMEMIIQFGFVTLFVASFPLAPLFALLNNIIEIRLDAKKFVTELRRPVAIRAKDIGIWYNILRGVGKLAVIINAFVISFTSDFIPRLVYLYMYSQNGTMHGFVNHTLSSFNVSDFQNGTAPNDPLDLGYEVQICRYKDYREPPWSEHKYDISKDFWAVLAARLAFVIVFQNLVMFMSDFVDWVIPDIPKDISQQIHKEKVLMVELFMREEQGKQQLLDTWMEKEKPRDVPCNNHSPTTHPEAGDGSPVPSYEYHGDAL
# Experiment: Inside-out patch recording of 1PBC block, wild-type TMEM16A
# Assay type: cell-based
# Conditions: for remaining activity at 1 µM / remaining activity at 3 µM: read-out: I/Imax
# Protocol: HEK293T cells (ATCC CRL-1573) were maintained in Dulbecco’s modified Eagle’s medium (DMEM; Sigma-Aldrich) supplemented with 10 U ml^−1 penicillin, 0.1 mg ml^−1 streptomycin (Sigma-Aldrich), 2 mM L-glutamine (Sigma-Aldrich), and 10% FBS (Sigma-Aldrich) in a humidified atmosphere containing 5% CO2 at 37 °C. HEK293S GnTI^− cells (ATCC CRL-3022) were maintained in HyClone HyCell TransFx-H medium (GE Healthcare) supplemented with 10 U ml^−1 penicillin, 0.1 mg ml^−1 streptomycin, 4 mM L-glutamine, 0.15% poloxamer 188 (Sigma-Aldrich), and 1% FBS in an atmosphere containing 5% CO2 at 185 rpm at 37 °C. The ac splice variant of mouse TMEM16A (UniProt ID: Q8BHY3), mouse TMEM16B (UniProt ID: Q8CFW1), or mouse TMEM16F (UniProt ID: Q6P9J9) bearing a 3C cleavage site, a Venus YFP, a Myc tag, and a Streptavidin-binding peptide (SBP) downstream of the open reading frame in a modified pcDNA3.1 vector (Invitrogen) were used as described previously[21],[31]. Mutations were introduced using a modified QuikChange method[58] and were verified by sequencing.
# HEK293T cells were transfected with 3–4 μg DNA per 6 cm Petri dish using the calcium phosphate co-precipitation method and were used within 24–96 h after transfection. Recordings were performed on inside-out patches excised from HEK293T cells expressing the construct of interest. Patch pipettes were pulled from borosilicate glass capillaries (O.D. 1.5 mm, I.D. 0.86 mm, Sutter Instrument) and were fire-polished with a microforge (Narishige) before use. Pipette resistance was typically 3–8 MΩ when filled with the recording solutions detailed below. Seal resistance was typically 4 GΩ or higher. Voltage-clamp recordings were made using Axopatch 200B, Digidata 1550, and Clampex 10.7 (Molecular Devices). Analog signals were filtered with the in-built 4-pole Bessel filter at 10 kHz and were digitized at 20 kHz. Solution exchange was achieved using a gravity-fed system through a theta glass pipette mounted on an ultra-fast piezo-driven stepper (Siskiyou). […] All recordings were performed at 20 °C.
# A symmetrical ionic condition was used throughout. Stock solution with Ca^2+-EGTA contained 150 mM NaCl, 5.99 mM Ca(OH)2, 5 mM EGTA, and 10 mM HEPES at pH 7.40. Stock solution with EGTA contained 150 mM NaCl, 5 mM EGTA, and 10 mM HEPES at pH 7.40. Free Ca^2+ concentrations were adjusted by mixing the stock solutions at the required ratios calculated using the WEBMAXC program (http://web.stanford.edu/~cpatton/webmaxcS.htm). Patch pipettes were filled with the stock solution with Ca^2+-EGTA, which has a free Ca^2+ concentration of 1 mM. 1PBC (ChemBridge) stock was reconstituted in anhydrous DMSO (Sigma-Aldrich) at 100 mM and stored at −20 °C. Working solutions with 1PBC were prepared by serial dilution. Unless otherwise stated, experiments were performed at a saturating Ca^2+ concentration as shown in Supplementary Table 1 and the primary data were corrected for current rundown as described previously[21],[25].
# Concentration-response relations, obtained from the ratio of the I-V plots before and after the application of the blocker, were fitted to the Hill equation,1 I/Imax=1/1+IC50/[blocker]^h where I/Imax is the normalized current responses, IC50 defines the concentration at which inhibition is at its half-maximum, and h is the Hill coefficient.
compound,measurement,setting,value
N#Cc1c(C(F)(F)F)cc(O)n2c1nc1ccccc12 [1PBC],Hill coefficient for 1PBC block,,1
same,IC50,"0 mV, 2 µM Ca2+",4.4 µM
same,IC50,"0.4 μM Ca2+, 80 mV, empirical Hill fit of data scaled to open probability",3.2 µM
same,IC50,"0.8 μM Ca2+, 80 mV, empirical Hill fit of data scaled to open probability",2.13 µM
same,Steady-state current (normalized),"1 µM 1PBC, 0 mV, 2 µM Ca2+",0.001783
same,remaining activity at 1 µM,"1 µM 1PBC, 0 mV, 2 µM Ca2+",73%
same,I/Imax scaled to open probability,"1 µM 1PBC, 400 nM Ca2+, 80 mV",0.3757
same,I/Imax scaled to open probability,"1 µM 1PBC, 800 nM Ca2+, 80 mV",0.4419
same,I/Imax scaled to open probability,"1 µM 1PBC, 2 µM Ca2+, 80 mV",0.5218
same,Steady-state current (normalized),"1 µM 1PBC, 20 mV, 2 µM Ca2+",0.134
same,remaining activity at 1 µM,"1 µM 1PBC, 20 mV, 2 µM Ca2+",68.9%
same,Steady-state current (normalized),"1 µM 1PBC, 40 mV, 2 µM Ca2+",0.2463
same,remaining activity at 1 µM,"1 µM 1PBC, 40 mV, 2 µM Ca2+",65.3%
same,Steady-state current (normalized),"1 µM 1PBC, 60 mV, 2 µM Ca2+",0.3454
same,remaining activity at 1 µM,"1 µM 1PBC, 60 mV, 2 µM Ca2+",62.6%
same,Steady-state current (normalized),"1 µM 1PBC, 80 mV, 2 µM Ca2+",0.4256
same,remaining activity at 1 µM,"1 µM 1PBC, 80 mV, 2 µM Ca2+",60.1%
same,Steady-state current (normalized),"1 µM 1PBC, 100 mV, 2 µM Ca2+",0.5103
same,remaining activity at 1 µM,"1 µM 1PBC, 100 mV, 2 µM Ca2+",60.1%
same,Steady-state current (normalized),"1 µM 1PBC, 120 mV, 2 µM Ca2+",0.5951
same,remaining activity at 1 µM,"1 µM 1PBC, 120 mV, 2 µM Ca2+",61.1%
same,Steady-state current (normalized),"1 µM 1PBC, 140 mV, 2 µM Ca2+",0.7035
same,remaining activity at 1 µM,"1 µM 1PBC, 140 mV, 2 µM Ca2+",64.7%
same,Steady-state current (normalized),"1 µM 1PBC, -20 mV, 2 µM Ca2+",-0.1486
same,remaining activity at 1 µM,"1 µM 1PBC, -20 mV, 2 µM Ca2+",77.2%
same,Steady-state current (normalized),"1 µM 1PBC, -40 mV, 2 µM Ca2+",-0.3126
same,remaining activity at 1 µM,"1 µM 1PBC, -40 mV, 2 µM Ca2+",80.5%
same,Steady-state current (normalized),"1 µM 1PBC, -60 mV, 2 µM Ca2+",-0.4807
same,remaining activity at 1 µM,"1 µM 1PBC, -60 mV, 2 µM Ca2+",83%
same,Steady-state current (normalized),"1 µM 1PBC, -80 mV, 2 µM Ca2+",-0.661
same,remaining activity at 1 µM,"1 µM 1PBC, -80 mV, 2 µM Ca2+",86.1%
same,Steady-state current (normalized),"1 µM 1PBC, -100 mV, 2 µM Ca2+",-0.836
same,remaining activity at 1 µM,"1 µM 1PBC, -100 mV, 2 µM Ca2+",88%
same,Steady-state current (normalized),"1 µM 1PBC, -120 mV, 2 µM Ca2+",-1.004
same,remaining activity at 1 µM,"1 µM 1PBC, -120 mV, 2 µM Ca2+",89.7%
same,Steady-state current (normalized),"1 µM 1PBC, -140 mV, 2 µM Ca2+",-1.145
same,remaining activity at 1 µM,"1 µM 1PBC, -140 mV, 2 µM Ca2+",89.1%
same,IC50,"2 μM Ca2+, 80 mV, empirical Hill fit of data scaled to open probability",1.94 µM
same,Steady-state current (normalized),"3 µM 1PBC, 0 mV, 2 µM Ca2+",0.001316
same,remaining activity at 3 µM,"3 µM 1PBC, 0 mV, 2 µM Ca2+",53.9%
same,I/Imax scaled to open probability,"3 µM 1PBC, 400 nM Ca2+, 80 mV",0.2553
same,I/Imax scaled to open probability,"3 µM 1PBC, 800 nM Ca2+, 80 mV",0.2864
same,I/Imax scaled to open probability,"3 µM 1PBC, 2 µM Ca2+, 80 mV",0.3306
same,Steady-state current (normalized),"3 µM 1PBC, 20 mV, 2 µM Ca2+",0.0952
same,remaining activity at 3 µM,"3 µM 1PBC, 20 mV, 2 µM Ca2+",48.9%
same,Steady-state current (normalized),"3 µM 1PBC, 40 mV, 2 µM Ca2+",0.1678
same,remaining activity at 3 µM,"3 µM 1PBC, 40 mV, 2 µM Ca2+",44.5%
